# In US6737383B1, “Herbicidal oxadiazolidines” (priority 1999, dated 2004):
# How the values were obtained:
# winter wheat [1] = test: Test E winter wheat; type: in vivo, Triticum aestivum; conditions: Postemergence; for Wheat (winter) plant response rating: Rate 250 g/ha
# In short: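 Each compound, carried in a non-phytotoxic solvent blend including surfactant, was applied (postemergence: over the top of young plants at 1- to 4-leaf stage). Plants stayed in the greenhouse about 21 to 28 days before visual comparison with untreated controls.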
# green foxtail = test: Test E green foxtail; type: in vivo, Setaria viridis; conditions: Preemergence; for Green foxtail plant response rating (0 to 100 scale): Rate 250 g/ha
# Italian ryegrass = test: Test E Italian ryegrass; type: in vivo, Lolium multiflorum; conditions: Preemergence; for I. Ryegrass plant response rating (0 to 100 scale): Rate 250 g/ha
# winter wheat [2] = test: Test E winter wheat; type: in vivo, Triticum aestivum; conditions: Preemergence; for Wheat (winter) plant response rating (0 to 100 scale): Rate 250 g/ha
# sugar beet = test: Test B pre/postemergence sugar beet; type: in vivo, Beta vulgaris
# In short: (§1)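 Response is a visual 0-to-10 score relative to untreated plants, where 0 means no effect and 10 means complete control, taken twelve to sixteen days after application. Treatments went onto soil at planting and onto foliage of 1- to 4-leaf plants, using a surfactant-containing non-phytotoxic solvent.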
# winter barley = test: Test E winter barley; type: in vivo, Hordeum vulgare; conditions: Preemergence; for Barley (winter) plant response rating (0 to 100 scale): Rate 250 g/ha
# blackgrass = test: Test E blackgrass; type: in vivo, Alopecurus myosuroides; conditions: Preemergence; for Blackgrass plant response rating (0 to 100 scale): Rate 250 g/ha
# pigweed = test: Test B pre/postemergence pigweed; type: in vivo, Amaranthus retroflexus
# In short: as §1
# rape = test: Test B pre/postemergence rape; type: in vivo, Brassica napus
# In short: as §1
# wild oat = test: Test E wild oat; type: in vivo, Avena fatua; conditions: Preemergence; for Wild oat plant response rating (0 to 100 scale): Rate 250 g/ha
# [3] = Rate 125 g/ha, 0 to 100 scale, 0 is no effect, 100 is complete control
# [4] = 0 to 100 scale where 0 is no effect and 100 is complete control
# [5] = Rate 500 g/ha, 0 to 100 scale, 0 is no effect, 100 is complete control
# [6] = Rate 125 g/ha, 0 to 100 scale (0 no effect, 100 complete control)
# [7] = Rate 500 g/ha, 0 to 100 scale where 0 is no effect and 100 is complete control
# [8] = Preemergence, Rate 62 g/ha, scale of 0 to 10 where 0 is no effect and 10 is complete control
# [9] = Preemergence, Rate 250 g/ha, scale of 0 to 10 where 0 is no effect and 10 is complete control
# [10] = Preemergence, Rate 500 g/ha, scale of 0 to 10 where 0 is no effect and 10 is complete control
# [11] = Rate 62 g/ha, Postemergence, scale of 0 to 10 where 0 is no effect and 10 is complete control
# [12] = Rate 125 g/ha, Preemergence, scale of 0 to 10 where 0 is no effect and 10 is complete control
# [13] = Rate 500 g/ha, Postemergence, scale 0 to 10, 0 no effect, 10 complete control
# [14] = Rate 500 g/ha, 0 to 100 scale (0 no effect, 100 complete control)
# [15] = Rate 1000 g/ha, 0 to 100 scale, 0 no effect, 100 complete control
# [16] = Rate 62 g/ha, Postemergence, scale 0 to 10 (0 no effect, 10 complete control)
# [17] = Rate 125 g/ha, Postemergence, scale of 0 to 10 where 0 is no effect and 10 is complete control
# [18] = Rate 250 g/ha, Postemergence, scale of 0 to 10 where 0 is no effect and 10 is complete control
# [19] = Rate 31 g/ha, 0 to 100 scale, 0 no effect, 100 complete control
# [20] = Rate 62 g/ha, 0 to 100 scale, 0 no effect, 100 complete control
# [21] = Preemergence, Rate 31 g/ha, visual rating, scale 0 to 10 (0 no effect, 10 complete control)
# [22] = Rate 16 g/ha, Postemergence, scale 0 to 10, 0 no effect, 10 complete control
# [23] = Rate 16 g/ha, Preemergence, scale 0 to 10, 0 no effect, 10 complete control
# [24] = Rate 31 g/ha, Postemergence, scale 0 to 10
smiles,measurement,setting,value
CC(C)N(C(=O)n1oc(=O)n(C2CC2)c1=O)c1ccc(Cl)cc1 [Compound 241],"Plant response rating, Wheat (winter)",winter wheat [1]; [3],20
same,Wheat (winter) plant response rating,winter wheat [1]; [4],60
same,"Plant response rating, Wheat (winter)",winter wheat [1]; [5],50
same,"Plant response rating, Green foxtail",green foxtail; [6],65
same,Green foxtail plant response rating (0 to 100 scale),green foxtail,90
same,"Plant response rating, Green foxtail",green foxtail; [7],90
same,"Plant response rating, I. Ryegrass",Italian ryegrass; [6],60
same,I. Ryegrass plant response rating (0 to 100 scale),Italian ryegrass,70
same,"Plant response rating, I. Ryegrass",Italian ryegrass; [7],100
same,"Plant response rating, Wheat (winter)",winter wheat [2]; [6],40
same,Wheat (winter) plant response rating (0 to 100 scale),winter wheat [2],50
same,"Plant response rating, Wheat (winter)",winter wheat [2]; [7],60
same,Sugarbeets plant response rating,sugar beet; [8],0
same,Sugarbeets plant response rating,sugar beet; [9],6
same,"Plant response rating, Sugarbeets",sugar beet; [10],6
same,Sugarbeets plant response rating,sugar beet; [11],0
same,Sugarbeets plant response rating,sugar beet; [12],0
same,Sugarbeets plant response rating,sugar beet; [13],5
same,"Plant response rating, Barley (winter)",winter barley; [6],40
same,Barley (winter) plant response rating (0 to 100 scale),winter barley,50
same,"Plant response rating, Barley (winter)",winter barley; [7],60
same,"Plant response rating, Blackgrass",blackgrass; [6],60
same,Blackgrass plant response rating (0 to 100 scale),blackgrass,100
same,"Plant response rating, Blackgrass",blackgrass; [7],98
same,Redroot pigweed plant response rating,pigweed; [8],0
same,Redroot pigweed plant response rating,pigweed; [9],9
same,"Plant response rating, Redroot pigweed",pigweed; [10],10
same,Redroot pigweed plant response rating,pigweed; [11],0
same,Redroot pigweed plant response rating,pigweed; [12],0
same,"Plant response rating (0 to 10; 0 is no effect, 10 is complete control), Redroot pigweed","pigweed; Rate 250 g/ha, Postemergence",0
same,Redroot pigweed plant response rating,pigweed; [13],7
same,Rape plant response rating,rape; [8],0
same,Rape plant response rating,rape; [9],5
same,"Plant response rating, Rape",rape; [10],9
same,Rape plant response rating,rape; [11],0
same,Rape plant response rating,rape; [12],0
same,"Plant response rating (0 to 10; 0 is no effect, 10 is complete control), Rape","rape; Rate 250 g/ha, Postemergence",2
same,Rape plant response rating,rape; [13],4
same,"Plant response rating, Wild oat",wild oat; [6],50
same,Wild oat plant response rating (0 to 100 scale),wild oat,60
same,"Plant response rating, Wild oat",wild oat; [7],55
CC(C)N(C(=O)n1oc(=O)n(C2CCCC2)c1=O)c1ccc(F)cc1F [Compound 284],"Plant response rating, Wheat (winter)","winter wheat [1]; Rate 1000 g/ha, 0 to 100 scale where 0 is no effect and 100 is complete control",85
same,Wheat (winter) plant response rating,winter wheat [1]; [4],60
same,"Plant response rating, Wheat (winter)",winter wheat [1]; [5],20
same,Green foxtail plant response rating (0 to 100 scale),green foxtail,100
same,"Plant response rating, Green foxtail",green foxtail; [14],100
same,"Plant response rating, Green foxtail",green foxtail; [15],100
same,I. Ryegrass plant response rating (0 to 100 scale),Italian ryegrass,85
same,"Plant response rating, I. Ryegrass",Italian ryegrass; [14],70
same,"Plant response rating, I. Ryegrass",Italian ryegrass; [15],85
same,Wheat (winter) plant response rating (0 to 100 scale),winter wheat [2],70
same,"Plant response rating, Wheat (winter)",winter wheat [2]; [14],70
same,"Plant response rating, Wheat (winter)",winter wheat [2]; [15],80
same,Sugarbeets plant response rating,sugar beet; [8],2
same,Sugarbeets plant response rating,sugar beet; [9],6
same,"Plant response rating, Sugarbeets",sugar beet; [10],6
same,Sugarbeets plant response rating,sugar beet; [16],1
same,Sugarbeets plant response rating,sugar beet; [17],3
same,Sugarbeets plant response rating,sugar beet; [12],5
same,"Plant response rating, Sugarbeets",sugar beet; [18],5
same,Barley (winter) plant response rating (0 to 100 scale),winter barley,50
same,"Plant response rating, Barley (winter)",winter barley; [14],30
same,"Plant response rating, Barley (winter)",winter barley; [15],60
same,Blackgrass plant response rating (0 to 100 scale),blackgrass,65
same,"Plant response rating, Blackgrass",blackgrass; [15],70
same,Redroot pigweed plant response rating,pigweed; [8],5
same,Redroot pigweed plant response rating,pigweed; [9],7
same,"Plant response rating, Redroot pigweed",pigweed; [10],8
same,Redroot pigweed plant response rating,pigweed; [16],3
same,Redroot pigweed plant response rating,pigweed; [17],4
same,Redroot pigweed plant response rating,pigweed; [12],6
same,"Plant response rating, Redroot pigweed",pigweed; [18],6
same,Rape plant response rating,rape; [8],2
same,Rape plant response rating,rape; [9],7
same,"Plant response rating, Rape",rape; [10],7
same,Rape plant response rating,rape; [16],1
same,Rape plant response rating,rape; [17],3
same,Rape plant response rating,rape; [12],2
same,"Plant response rating, Rape",rape; [18],4
same,Wild oat plant response rating (0 to 100 scale),wild oat,70
same,"Plant response rating, Wild oat",wild oat; [14],60
same,"Plant response rating, Wild oat",wild oat; [15],70
CC(C)N(C(=O)n1oc(=O)n(CCCF)c1=O)c1ccc(F)cc1 [Compound 287],"Plant response rating, Wheat (winter)",winter wheat [1]; [19],30
same,"Plant response rating, Wheat (winter)","winter wheat [1]; Rate 62 g/ha, 0 to 100 scale",30
same,"Plant response rating, Wheat (winter)",winter wheat [1]; [3],40
same,Wheat (winter) plant response rating,winter wheat [1]; [4],50
same,"Plant response rating, Green foxtail",green foxtail; [19],30
same,"Plant response rating, Green foxtail",green foxtail; [20],60
same,"Plant response rating, Green foxtail",green foxtail; [6],60
same,Green foxtail plant response rating (0 to 100 scale),green foxtail,90
same,"Plant response rating, I. Ryegrass",Italian ryegrass; [19],20
same,"Plant response rating, I. Ryegrass",Italian ryegrass; [20],50
same,"Plant response rating, I. Ryegrass",Italian ryegrass; [6],55
same,I. Ryegrass plant response rating (0 to 100 scale),Italian ryegrass,60
same,"Plant response rating, Wheat (winter)",winter wheat [2]; [19],40
same,"Plant response rating, Wheat (winter)",winter wheat [2]; [20],30
same,"Plant response rating, Wheat (winter)",winter wheat [2]; [6],45
same,Wheat (winter) plant response rating (0 to 100 scale),winter wheat [2],50
same,Sugarbeets plant response rating,sugar beet; [21],0
same,Sugarbeets plant response rating,sugar beet; [8],3
same,Sugarbeets plant response rating,sugar beet; [22],0
same,Sugarbeets plant response rating,sugar beet; [23],0
same,Sugarbeets plant response rating,sugar beet; [16],0
same,Sugarbeets plant response rating,sugar beet; [17],0
same,Sugarbeets plant response rating,sugar beet; [12],6
same,"Plant response rating, Barley (winter)",winter barley; [19],30
same,"Plant response rating, Barley (winter)",winter barley; [20],20
same,"Plant response rating, Barley (winter)",winter barley; [6],30
same,Barley (winter) plant response rating (0 to 100 scale),winter barley,35
same,"Plant response rating, Blackgrass",blackgrass; [19],30
same,"Plant response rating, Blackgrass",blackgrass; [20],30
same,"Plant response rating, Blackgrass",blackgrass; [6],50
same,Blackgrass plant response rating (0 to 100 scale),blackgrass,60
same,Redroot pigweed plant response rating,pigweed; [21],4
same,Redroot pigweed plant response rating,pigweed; [8],5
same,Redroot pigweed plant response rating,pigweed; [22],0
same,Redroot pigweed plant response rating,pigweed; [23],0
same,Redroot pigweed plant response rating,pigweed; [24],0
same,Redroot pigweed plant response rating,pigweed; [16],2
same,Redroot pigweed plant response rating,pigweed; [17],6
same,Redroot pigweed plant response rating,pigweed; [12],8
same,Rape plant response rating,rape; [21],4
same,Rape plant response rating,rape; [8],4
same,Rape plant response rating,rape; [22],0
same,Rape plant response rating,rape; [23],0
same,Rape plant response rating,rape; [24],0
same,Rape plant response rating,rape; [16],0
same,Rape plant response rating,rape; [17],0
same,Rape plant response rating,rape; [12],8
same,"Plant response rating, Wild oat",wild oat; [19],0
same,"Plant response rating, Wild oat",wild oat; [20],30
same,"Plant response rating, Wild oat",wild oat; [6],70
same,Wild oat plant response rating (0 to 100 scale),wild oat,60
